Measurements as given in ChEMBL document CHEMBL5329165, “Design, synthesis and biological evaluation of phenanthridine amide and 1,2,3-triazole analogues against Mycobacterium tuberculosis” (RSC Med Chem, 2023).
≈ marks a conversion by molar mass, not a printed value.

Tested on: Mycobacterium tuberculosis
Test: Antimycobacterial activity against Mycobacterium tuberculosis H37Ra transformed with pSMT1 luciferase reporter plasmid incubated for 7 days by luminometric assay
Assay type: functional
Details: 168 h, time 7 day

`O=C(Nc1ccc(N2CCN(C(=O)c3cnccn3)CC2)nc1)c1ccccc1` was tested, and the MIC was 1.46 µM (≈ 0.567 µg/mL).
